Results: patent US8436185B2, “Pharmaceutically acceptable salts of 2-{4-[(3S)-piperidin-3-yl]phenyl}-2H-indazole-7-carboxamide” (Merck Sharp & Dohme Corp., priority 2008, dated 2013)

Tests used:
[1] = system: PARP; conditions: rabbits, cited from earlier work
[2] = for Hygroscopicity (at 25° C.): in words

Structure (SMILES) | reduction in infarct size ([1]; single injection 1 mg/kg) | reduction in infarct size in the heart ([1]; single injection 10 mg/kg, one minute before occlusion or before reperfusion) | moisture to 50% RH ([2]; 25° C., to 50% RH) | moisture adsorbed to 95% RH ([2]; 25° C.) | Hygroscopicity (at 25° C.) [2]
Oc1cccc2c(O)nccc12 [1,5-dihydroxyisoquinoline] | 38-48% |  |  |  | 
NC(=O)c1cccc(N)c1 [3-amino-benzamide] |  | 32-42% |  |  | 
Cl.NC(=O)c1cccc2cn(-c3ccc([C@@H]4CCCNC4)cc3)nc12 [Chloride salt, (3S)-3-[4-[7-(Aminocarbonyl)-2H-indazol-2-yl]phenyl]piperidinium chloride] |  |  | 10% | 60% moisture to 95% RH) | Highly hygroscopic
Cc1ccc(S(=O)(=O)O)cc1.NC(=O)c1cccc2cn(-c3ccc([C@@H]4CCCNC4)cc3)nc12 [Example 1, (3S)-3-{4-[7-(Aminocarbonyl)-2H-indazol-2-yl]phenyl}piperidinium 4-methylbenzenesulfonate] |  |  |  | 0.3% | Non-hygroscopic
